From the supplement of paper PMC10307832

Assays:
Assay in all cases: relative viability (nuclei count vs DMSO), 5 days (fraction); higher = more cells survive
Dasatinib + OSI-027 = compound: Cc1nc(Nc2ncc(C(=O)Nc3c(C)cccc3Cl)s2)cc(N2CCN(CCO)CC2)n1 [Dasatinib] + COc1cccc2cc(-c3nc([C@H]4CC[C@H](C(=O)O)CC4)n4ncnc(N)c34)[nH]c12 [OSI-027] (partner 0.5 µM)
Outline: (§1)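 Dosing by pin tool came one day after lung cancer cell lines were seeded in 1536-well plates, using either one drug or a fixed anchor-drug dose plus five library-drug doses (not always all listed) in √10 steps. After 5 days, nuclei were counted on 4× images. Relative viability is treated-well nuclei count divided by vehicle-well nuclei count, and values are medians of duplicate plates.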

XMD13-2 + Tozasertib = compound: C1CC1C(=O)NC2=NNC3=C2C=CC(=C3)C4=CC(=CC=C4)C(=O)NC5CC5 [XMD13-2] + Cc1cc(Nc2cc(N3CCN(C)CC3)nc(Sc3ccc(NC(=O)C4CC4)cc3)n2)n[nH]1 [Tozasertib] (partner 0.1 µM)
Outline: as §1

ALW-II-49-7 + Luminespib = compound: Cc1ccc(C(=O)Nc2cccc(C(F)(F)F)c2)cc1Nc1cncc(C(N)=O)c1 [ALW-II-49-7] + CCNC(=O)c1noc(-c2cc(C(C)C)c(O)cc2O)c1-c1ccc(CN2CCOCC2)cc1 [Luminespib] (partner 0.01 µM)
Outline: as §1

Dasatinib + Phenformin = compound: Cc1nc(Nc2ncc(C(=O)Nc3c(C)cccc3Cl)s2)cc(N2CCN(CCO)CC2)n1 [Dasatinib] + N=C(N)NC(=N)NCCc1ccccc1 [Phenformin] (partner 250 µM)
Outline: as §1

| Cell Line | relative viability (Dasatinib + OSI-027; first compound 0.005 µM) | relative viability (Dasatinib + OSI-027; first compound 0.01581 µM) | relative viability (Dasatinib + OSI-027; first compound 0.05 µM) | relative viability (Dasatinib + OSI-027; first compound 0.1581 µM) | relative viability (Dasatinib + OSI-027; first compound 0.5 µM) | relative viability (XMD13-2 + Tozasertib; first compound 0.05 µM) | relative viability (XMD13-2 + Tozasertib; first compound 0.1581 µM) | relative viability (XMD13-2 + Tozasertib; first compound 0.5 µM) | relative viability (XMD13-2 + Tozasertib; first compound 1.581 µM) | relative viability (XMD13-2 + Tozasertib; first compound 5 µM) | relative viability (ALW-II-49-7 + Luminespib; first compound 0.08 µM) | relative viability (ALW-II-49-7 + Luminespib; first compound 0.253 µM) | relative viability (ALW-II-49-7 + Luminespib; first compound 0.8 µM) | relative viability (ALW-II-49-7 + Luminespib; first compound 2.53 µM) | relative viability (ALW-II-49-7 + Luminespib; first compound 8 µM) | relative viability (Dasatinib + Phenformin; first compound 0.005 µM) | relative viability (Dasatinib + Phenformin; first compound 0.01581 µM) | relative viability (Dasatinib + Phenformin; first compound 0.05 µM) | relative viability (Dasatinib + Phenformin; first compound 0.1581 µM) | relative viability (Dasatinib + Phenformin; first compound 0.5 µM) |
| --- | --- | --- | --- | --- | --- | --- | --- | --- | --- | --- | --- | --- | --- | --- | --- | --- | --- | --- | --- | --- |
| 201T | 0.662 | 0.567 | 0.597 | 0.386 | 0.211 | 1.02 | 0.921 | 0.867 | 0.872 | 0.828 | 1.06 | 0.907 | 1.07 | 0.993 | 1.09 | 0.446 | 0.33 | 0.338 | 0.341 | 0.221 |
| A549 |  |  |  |  |  |  |  |  |  |  |  |  |  |  |  | 0.207 | 0.165 | 0.175 | 0.137 | 0.0717 |
| A-427 | 0.464 | 0.338 | 0.411 | 0.342 | 0.37 | 0.213 | 0.199 | 0.2 | 0.159 | 0.195 | 0.728 | 0.736 | 0.875 |  | 0.769 | 0.326 | 0.262 | 0.277 | 0.266 | 0.225 |
| ABC-1 | 0.506 | 0.429 | 0.363 | 0.36 | 0.345 | 0.187 | 0.2 | 0.163 | 0.213 | 0.205 | 0.472 | 0.535 | 0.718 | 0.355 | 0.496 | 0.22 | 0.256 | 0.245 | 0.221 | 0.238 |
| BEN | 0.262 | 0.233 | 0.218 | 0.214 | 0.187 | 0.512 | 0.436 | 0.491 | 0.488 | 0.42 | 0.682 | 0.458 | 0.509 | 0.521 | 0.24 | 0.249 | 0.213 | 0.249 | 0.241 | 0.206 |
| CAL-12T | 0.845 | 0.819 | 0.846 | 0.375 | 0.221 | 0.344 | 0.41 | 0.307 | 0.31 | 0.368 | 0.193 | 0.293 | 0.517 | 0.285 | 0.38 | 0.574 | 0.554 | 0.411 | 0.273 | 0.174 |
| COR-L23 | 0.628 | 0.612 | 0.61 | 0.46 | 0.375 | 0.232 | 0.18 | 0.197 | 0.18 | 0.185 | 0.651 | 0.465 | 0.521 | 0.774 | 0.808 | 0.431 | 0.348 | 0.384 | 0.374 | 0.321 |
| COR-L 105 | 0.555 | 0.467 | 0.418 | 0.262 | 0.222 | 0.374 | 0.385 | 0.339 | 0.376 | 0.425 | 0.745 | 0.646 | 0.845 | 0.72 | 0.879 | 0.441 | 0.378 | 0.312 | 0.278 | 0.16 |
| ChaGo-K-1 | 0.556 | 0.501 | 0.52 | 0.459 | 0.423 | 0.234 | 0.214 | 0.254 | 0.222 | 0.258 | 0.529 | 0.664 | 0.544 | 0.444 | 0.438 | 0.546 | 0.463 | 0.41 | 0.442 | 0.377 |
| EKVX | 0.66 | 0.508 | 0.546 | 0.355 | 0.123 | 0.468 | 0.414 | 0.405 | 0.394 | 0.45 | 0.679 | 0.812 | 0.825 | 0.903 | 0.803 | 0.218 | 0.21 | 0.177 | 0.136 | 0.102 |
| EMC-BAC-2 | 0.315 | 0.264 | 0.259 | 0.192 | 0.152 | 0.284 | 0.28 | 0.19 | 0.273 | 0.267 | 1.07 | 1.14 | 1.22 | 1.06 | 0.998 | 0.476 | 0.326 | 0.429 | 0.224 | 0.172 |
| EPLC-272H | 0.33 | 0.338 | 0.252 | 0.29 | 0.091 | 0.228 | 0.289 | 0.262 | 0.269 | 0.136 | 0.218 |  | 0.324 | 0.312 | 0.276 | 0.313 | 0.252 | 0.386 | 0.261 | 0.0761 |
| H3255 | 0.639 | 0.484 | 0.653 | 0.44 | 0.274 | 0.567 | 0.844 | 0.757 | 0.487 | 0.507 | 1.02 | 0.851 | 0.972 | 0.876 | 0.648 | 0.312 | 0.344 | 0.341 | 0.322 | 0.274 |
| HARA | 0.339 | 0.4 | 0.375 | 0.156 | 0.0755 | 0.0933 | 0.117 | 0.106 | 0.0964 | 0.105 | 0.465 | 0.655 | 0.545 | 0.833 | 1.17 | 0.422 | 0.39 | 0.472 | 0.273 | 0.0965 |
| HCC-15 | 0.641 | 0.652 | 0.526 | 0.412 | 0.454 | 0.522 | 0.422 | 0.402 | 0.425 | 0.463 | 0.172 | 0.302 | 0.319 | 0.304 | 0.391 | 0.482 | 0.475 | 0.462 | 0.287 | 0.269 |
| HCC-44 | 0.65 | 0.754 | 0.466 | 0.337 | 0.273 | 1.06 | 1.09 | 1.09 | 0.903 | 0.842 |  | 0.987 | 1.12 | 0.333 | 1.04 | 0.202 | 0.283 | 0.179 | 0.139 | 0.113 |
| HCC-78 | 0.317 | 0.361 | 0.267 | 0.326 | 0.257 | 0.362 | 0.436 | 0.372 | 0.346 | 0.282 |  |  |  |  |  | 0.436 | 0.581 | 0.581 | 0.465 | 0.245 |
| HCC-366 | 0.662 | 0.338 | 0.365 | 0.375 | 0.243 | 0.0882 | 0.0936 | 0.127 | 0.115 | 0.116 |  |  |  |  |  | 0.606 | 0.571 | 0.484 | 0.426 | 0.336 |
| HCC-827 | 0.805 | 0.745 | 0.557 | 0.456 | 0.119 | 0.428 | 0.409 | 0.427 | 0.401 | 0.386 | 0.795 | 0.587 | 0.678 | 0.683 | 1.76 | 0.411 | 0.362 | 0.328 | 0.293 | 0.104 |
| HOP-62 | 0.856 | 0.864 | 0.743 | 0.546 | 0.196 | 0.363 | 0.418 | 0.399 | 0.393 | 0.271 | 0.959 | 0.883 | 0.75 | 0.702 | 0.735 | 0.687 | 0.608 | 0.704 | 0.569 | 0.281 |
| LC-2-ad | 0.932 | 0.867 | 0.526 | 0.34 | 0.345 | 0.519 | 0.528 | 0.436 | 0.41 | 0.45 | 0.962 | 1.04 | 1.02 | 0.494 | 1 | 0.636 | 0.623 | 0.411 | 0.306 | 0.265 |
| LCLC-97TM1 | 0.557 | 0.598 | 0.55 | 0.606 | 0.38 | 0.235 | 0.198 | 0.209 | 0.194 | 0.104 | 0.772 | 0.689 | 0.807 | 0.869 | 0.656 | 0.451 | 0.439 | 0.45 | 0.449 | 0.168 |
| LCLC-103H | 0.437 | 0.38 | 0.403 | 0.38 | 0.146 | 0.542 | 0.326 | 0.492 | 0.545 | 0.416 | 0.852 | 1.01 | 1.03 | 0.854 | 1.03 | 0.367 | 0.3 | 0.267 | 0.298 | 0.127 |
| LK-2 | 0.2 | 0.174 | 0.158 | 0.167 | 0.172 | 0.187 | 0.169 | 0.173 | 0.18 | 0.149 |  | 0.184 | 0.174 | 0.205 | 0.185 | 0.464 | 0.23 | 0.257 | 0.166 | 0.163 |
| LOU-NH91 | 0.705 | 0.604 | 0.595 | 0.526 | 0.344 | 0.724 | 0.688 | 0.734 | 0.644 | 0.638 | 0.384 | 0.363 | 0.321 | 0.276 | 0.283 | 0.734 | 0.678 | 0.566 | 0.489 | 0.288 |
| LU99A | 0.296 |  | 0.264 | 0.232 | 0.216 | 0.301 | 0.294 | 0.287 | 0.263 | 0.272 | 0.253 | 0.212 | 0.194 | 0.217 | 0.288 | 0.845 |  | 0.888 | 0.752 | 0.472 |
| NCI-H1563 | 0.702 | 0.691 | 0.626 | 0.618 | 0.541 |  |  |  |  |  | 0.531 | 0.487 | 0.503 | 0.495 | 0.457 | 0.67 | 0.573 | 0.595 | 0.636 | 0.517 |
| NCI-H1648 | 0.264 | 0.274 | 0.306 | 0.268 | 0.24 | 0.5 | 0.314 | 0.608 | 0.51 | 0.342 |  |  |  |  |  |  |  |  |  |  |
| NCI-H1792 | 0.774 | 0.559 | 0.681 | 0.461 | 0.333 |  |  |  |  |  |  | 0.383 | 0.276 | 0.293 | 0.349 | 0.198 | 0.394 | 0.415 | 0.135 | 0.0671 |
